Reference: patent US10940139B2, “Compounds that interact with the Ras superfamily for the treatment of cancers, inflammatory diseases, rasopathies, and fibrotic disease” (Shy Therapeutics LLC, priority 2017, dated 2021)

These molecules were tested on MIA-PACA2 pancreatic cancer cell lines (assay: Cell proliferation assay (CellTiter 96 AQueous One)). Details: Homo sapiens, MIA PaCa-2; MIA-PACA2, same assay as the % inhibition (standard conditions).
Format: cell-based
`Oc1nc(-c2ccccn2)nc2c(Br)csc12` [drawing 1562] was tested, and the IC50 was 501 to 1000 nM. `O=C(c1csc2c(O)nc(-c3ccccn3)nc12)N1CCN(c2ccccc2)CC1` [drawing 1569] showed an IC50 of 100 to 500 nM. With `Oc1nc(-c2ccccn2)nc2c(-c3ccccc3)csc12` [drawing 1581] the IC50 was 100 to 500 nM. Molecule `Oc1nc(-c2ccccn2)nc2c(-c3ccccc3Cl)csc12` [drawing 1582] has an IC50 of 100 to 500 nM. In the case of `Oc1nc(-c2ccccn2)nc2scc(Br)c12` [drawing 1589], the IC50 was 100 to 500 nM. With `N#Cc1ncn(-c2nc(-c3ccccn3)nc3sc(-c4ccccc4)cc23)n1` [drawing 1595] the IC50 was 501 to 1000 nM. `O=C(CN1CCN(c2nc(-c3ccccn3)nc3sc(-c4ccccc4)cc23)CC1)N1CCCC1` [drawing 1606] was tested, and the IC50 was over 1000 nM.

Same assay, conditions: Homo sapiens, MIA PaCa-2; at 30 μM, MIA-PACA2
With `COc1ccc(COCC(=O)N2CCCc3c(O)nc(-c4ccccn4)nc32)cc1` [drawing 1544] the inhibition at 30 µM was 76 to 100%. `COc1ccc(CCC(=O)N2CCCc3c(O)nc(-c4ccccn4)nc32)cc1` [drawing 1545] was tested, and the inhibition at 30 µM was 76 to 100%. `O=C(c1ccn(-c2ccccc2)n1)N1CCCc2c(O)nc(-c3ccccn3)nc21` [drawing 1546] showed an inhibition at 30 µM of 76 to 100%. With `CS(=O)(=O)N1CCCc2cc(C(=O)N3CCCc4c(O)nc(-c5ccccn5)nc43)ccc21` [drawing 1547] the inhibition at 30 µM was 76 to 100%. `O=C(c1ccc(=O)[nH]n1)N1CCCc2c(O)nc(-c3ccccn3)nc21` [drawing 1548] gave an inhibition at 30 µM of 76 to 100%. `CS(=O)(=O)c1cccc(C(=O)N2CCCc3c(O)nc(-c4ccccn4)nc32)c1` [drawing 1549] was tested, and the inhibition at 30 µM was 1 to 25%. `COCCCC(=O)N1CCCc2c(O)nc(-c3ccccn3)nc21` [drawing 1550] showed an inhibition at 30 µM of 76 to 100%. With `O=C(c1cocn1)N1CCCc2c(O)nc(-c3ccccn3)nc21` [drawing 1551] the inhibition at 30 µM was 1 to 25%. Molecule `O=S(=O)(CCc1ccccc1)N1CCCc2c(O)nc(-c3ccccn3)nc21` [drawing 1552] has an inhibition at 30 µM of 1 to 25%. With `O=S(=O)(c1ccccc1)N1CCCc2c(O)nc(-c3ccccn3)nc21` [drawing 1553] the inhibition at 30 µM was 25 to 50%. With `O=C(OCCc1ccccc1)N1CCCc2c(O)nc(-c3ccccn3)nc21` [drawing 1554] the inhibition at 30 µM was 76 to 100%. For `O=C(CC(c1ccccc1)c1ccccc1)N1CCCc2c(O)nc(-c3ccccn3)nc21` [drawing 1555], the inhibition at 30 µM was 76 to 100%. With `O=C(CCCc1cccnc1)N1CCCc2c(O)nc(-c3ccccn3)nc21` [drawing 1556] the inhibition at 30 µM was 76 to 100%. `Nc1nc(O)c2scc(Br)c2n1` [drawing 1557] gave an inhibition at 30 µM of 1 to 25%. For `CC1CCN(C(=O)c2csc3c(O)nc(N)nc23)CC1` [drawing 1558], the inhibition at 30 µM was 1 to 25%. With `Nc1nc(O)c2scc(C(=O)N3CCC(N4CCCC4=O)CC3)c2n1` [drawing 1559] the inhibition at 30 µM was 25 to 50%. Molecule `Nc1nc(O)c2scc(C(=O)NCCc3cccnc3)c2n1` [drawing 1560] has an inhibition at 30 µM of 1 to 25%. For `Nc1nc(O)c2scc(C(=O)N3CCc4ccccc4CC3)c2n1` [drawing 1561], the inhibition at 30 µM was 1 to 25%. In the case of `Oc1nc(-c2ccccn2)nc2c(Br)csc12` [drawing 1562], the inhibition at 30 µM was 76 to 100%. `CC1CCN(C(=O)c2csc3c(O)nc(-c4ccccn4)nc23)CC1` [drawing 1563] was tested, and the inhibition at 30 µM was 76 to 100%. Work on `COCC1CCN(C(=O)c2csc3c(O)nc(-c4ccccn4)nc23)CC1` [drawing 1564] yielded an inhibition at 30 µM of 76 to 100%. With `CCOCCC1CCN(C(=O)c2csc3c(O)nc(-c4ccccn4)nc23)CC1` [drawing 1565] the inhibition at 30 µM was 76 to 100%. Molecule `COCCCC1CCN(C(=O)c2csc3c(O)nc(-c4ccccn4)nc23)CC1` [drawing 1566] has an inhibition at 30 µM of 76 to 100%. For `O=C(c1csc2c(O)nc(-c3ccccn3)nc12)N1CCC(N2CCOCC2)CC1` [drawing 1567], the inhibition at 30 µM was 1 to 25%. `O=C(c1csc2c(O)nc(-c3ccccn3)nc12)N1CCC(N2CCCC2=O)CC1` [drawing 1568] was tested, and the inhibition at 30 µM was 1 to 25%. `O=C(c1csc2c(O)nc(-c3ccccn3)nc12)N1CCN(c2ccccc2)CC1` [drawing 1569] was tested, and the inhibition at 30 µM was 76 to 100%. Work on `O=C(c1csc2c(O)nc(-c3ccccn3)nc12)N1CCN(c2ccncc2)CC1` [drawing 1570] yielded an inhibition at 30 µM of 76 to 100%. Work on `O=C(c1csc2c(O)nc(-c3ccccn3)nc12)N1CCC(c2cccnc2)CC1` [drawing 1571] yielded an inhibition at 30 µM of 76 to 100%. `CC1(O)CCN(C(=O)c2csc3c(O)nc(-c4ccccn4)nc23)CC1` [drawing 1572] gave an inhibition at 30 µM of 76 to 100%. Work on `CC1(N)CCN(C(=O)c2csc3c(O)nc(-c4ccccn4)nc23)CC1` [drawing 1573] yielded an inhibition at 30 µM of 1 to 25%. `CCOC(=O)NC1CCN(C(=O)c2csc3c(O)nc(-c4ccccn4)nc23)CC1` [drawing 1574] showed an inhibition at 30 µM of 51 to 75%. In the case of `COCCOCCN(C)C(=O)c1csc2c(O)nc(-c3ccccn3)nc12` [drawing 1575], the inhibition at 30 µM was 25 to 50%. With `O=C(c1csc2c(O)nc(-c3ccccn3)nc12)N(CCO)CCOCCO` [drawing 1576] the inhibition at 30 µM was 1 to 25%. `CN(CCc1ccncc1)C(=O)c1csc2c(O)nc(-c3ccccn3)nc12` [drawing 1577] gave an inhibition at 30 µM of 25 to 50%. With `O=C(NCCc1cccnc1)c1csc2c(O)nc(-c3ccccn3)nc12` [drawing 1578] the inhibition at 30 µM was 76 to 100%. Work on `O=C(c1csc2c(O)nc(-c3ccccn3)nc12)N1CCc2ccccc2CC1` [drawing 1579] yielded an inhibition at 30 µM of 76 to 100%. For `Nc1nc(O)c2scc(-c3ccccc3)c2n1` [drawing 1580], the inhibition at 30 µM was 25 to 50%. Molecule `Oc1nc(-c2ccccn2)nc2c(-c3ccccc3)csc12` [drawing 1581] has an inhibition at 30 µM of 76 to 100%. In the case of `Oc1nc(-c2ccccn2)nc2c(-c3ccccc3Cl)csc12` [drawing 1582], the inhibition at 30 µM was 76 to 100%. Work on `Oc1nc(-c2ccccn2)nc2c1ncn2-c1ccccc1` [drawing 1583] yielded an inhibition at 30 µM of 25 to 50%. For `Oc1nc(-c2ccccn2)nc2c1ncn2-c1ccccn1` [drawing 1584], the inhibition at 30 µM was 76 to 100%. Molecule `COc1ccc(COCC(=O)Nc2ccnc(-c3ccccn3)n2)cn1` [drawing 1585] has an inhibition at 30 µM of 1 to 25%. `N#Cc1ccc(CC(=O)Nc2ccnc(-c3ccccn3)n2)cc1` [drawing 1586] showed an inhibition at 30 µM of 76 to 100%. With `Brc1csc2nc(-c3ccccn3)nc(N3CCOCC3)c12` [drawing 1587] the inhibition at 30 µM was 25 to 50%. `c1ccc(-c2nc(N3CCOCC3)c3ccsc3n2)nc1` [drawing 1588] showed an inhibition at 30 µM of 51 to 75%. `Oc1nc(-c2ccccn2)nc2scc(Br)c12` [drawing 1589] showed an inhibition at 30 µM of 76 to 100%. For `Oc1nc(-c2ccccn2)nc2sccc12` [drawing 1590], the inhibition at 30 µM was 76 to 100%. Molecule `c1ccc(-c2nc(NCC3CCCO3)c3ccsc3n2)nc1` (centres unmarked) [drawing 1591] has an inhibition at 30 µM of 76 to 100%. In the case of `CCN(CC)CCC(C)Nc1nc(-c2ccccn2)nc2sccc12` (centres unmarked) [drawing 1592], the inhibition at 30 µM was 76 to 100%. `O=C1CN(c2nc(-c3ccccn3)nc3scc(-c4ccccc4)c23)CCN1` [drawing 1593] showed an inhibition at 30 µM of 1 to 25%. `O=C1CN(c2nc(-c3ccccn3)nc3scc(-c4ccccc4)c23)CCN1CCO` [drawing 1594] was tested, and the inhibition at 30 µM was 51 to 75%. Molecule `N#Cc1ncn(-c2nc(-c3ccccn3)nc3sc(-c4ccccc4)cc23)n1` [drawing 1595] has an inhibition at 30 µM of 76 to 100%. `Cc1nnc(C(Nc2nc(-c3ccccn3)nc3scc(-c4ccccc4)c23)c2ccccc2)n1C` (centres unmarked) [drawing 1596] was tested, and the inhibition at 30 µM was 76 to 100%. In the case of `Cc1sc2nc(-c3ccccn3)nc(NCCc3nccn3C)c2c1-c1ccccc1` [drawing 1597], the inhibition at 30 µM was 76 to 100%. `CCCNC(=O)CN1CCN(c2nc(-c3ccccn3)nc3sc(-c4ccccc4)cc23)CC1` [drawing 1598] gave an inhibition at 30 µM of 76 to 100%. With `CC(Nc1nc(-c2ccccn2)nc2scc(-c3ccccc3)c12)c1nncn1C` (centres unmarked) [drawing 1601] the inhibition at 30 µM was 76 to 100%. `c1ccc(-c2csc3nc(-c4ccccn4)nc(N4CCN(Cc5cccnc5)CC4)c23)cc1` [drawing 1602] was tested, and the inhibition at 30 µM was 76 to 100%. `c1ccc(-c2csc3nc(-c4ccccn4)nc(N4CCN(CC5CCCO5)CC4)c23)cc1` (centres unmarked) [drawing 1603] was tested, and the inhibition at 30 µM was 76 to 100%. With `CN(Cc1cnn(C)c1)c1nc(-c2ccccn2)nc2scc(-c3ccccc3)c12` [drawing 1604] the inhibition at 30 µM was 76 to 100%. With `O=C(CN1CCN(c2nc(-c3ccccn3)nc3sc(-c4ccccc4)cc23)CC1)N1CCCC1` [drawing 1606] the inhibition at 30 µM was 76 to 100%. `CNC(=O)CN1CCN(c2nc(-c3ccccn3)nc3scc(-c4ccccc4)c23)CC1` [drawing 1607] was tested, and the inhibition at 30 µM was 1 to 25%. `O=S1(=O)CCC(N2CCN(c3nc(-c4ccccn4)nc4scc(-c5ccccc5)c34)CC2)C1` (centres unmarked) [drawing 1608] was tested, and the inhibition at 30 µM was 76 to 100%. With `CN(CC(=O)N1CCOCC1)c1nc(-c2ccccn2)nc2scc(-c3ccccc3)c12` [drawing 1609] the inhibition at 30 µM was 51 to 75%. `CON(C)c1nc(-c2ccccn2)nc2scc(-c3ccccc3)c12` [drawing 1610] showed an inhibition at 30 µM of 76 to 100%. `O=C(CN1CCN(c2nc(-c3ccccn3)nc3scc(-c4ccccc4)c23)CC1)N1CCCCC1` [drawing 1611] showed an inhibition at 30 µM of 76 to 100%. `O=C(CNc1nc(-c2ccccn2)nc2scc(-c3ccccc3)c12)NC1CC1` [drawing 1612] gave an inhibition at 30 µM of 76 to 100%. Molecule `CCN(CC)C(=O)CN1CCN(c2nc(-c3ccccn3)nc3scc(-c4ccccc4)c23)CC1` [drawing 1613] has an inhibition at 30 µM of 76 to 100%. Molecule `CC(C)CNC(=O)CN1CCN(c2nc(-c3ccccn3)nc3scc(-c4ccccc4)c23)CC1` [drawing 1614] has an inhibition at 30 µM of 76 to 100%. Work on `O=S1(=O)CCC(Nc2nc(-c3ccccn3)nc3scc(-c4ccccc4)c23)C1` (centres unmarked) [drawing 1615] yielded an inhibition at 30 µM of 76 to 100%. In the case of `c1ccc(-c2csc3nc(-c4ccccn4)nc(N4CCN(CCN5CCCC5)CC4)c23)cc1` [drawing 1616], the inhibition at 30 µM was 76 to 100%. For `OC1CCCN(c2nc(-c3ccccn3)nc3scc(-c4ccccc4)c23)C1` (centres unmarked) [drawing 1617], the inhibition at 30 µM was 76 to 100%. In the case of `c1ccc(-c2csc3nc(-c4ccccn4)nc(N4CCOCC4)c23)cc1` [drawing 1618], the inhibition at 30 µM was 76 to 100%. `OC1CCN(c2nc(-c3ccccn3)nc3scc(-c4ccccc4)c23)CC1` [drawing 1619] gave an inhibition at 30 µM of 76 to 100%. `O=C(CN1CCN(c2nc(-c3ccccn3)nc3scc(-c4ccccc4)c23)CC1)N1CCCC1` [drawing 1620] showed an inhibition at 30 µM of 76 to 100%. For `O=C(CN1CCN(c2nc(-c3ccccn3)nc3scc(-c4ccccc4)c23)CC1)NC1CC1` [drawing 1621], the inhibition at 30 µM was 76 to 100%. `O=C(C1CCN(c2nc(-c3ccccn3)nc3scc(-c4ccccc4)c23)CC1)N1CCCCC1` [drawing 1622] showed an inhibition at 30 µM of 76 to 100%. `c1ccc(-c2csc3nc(-c4ccccn4)nc(NN4CCOCC4)c23)cc1` [drawing 1623] was tested, and the inhibition at 30 µM was 76 to 100%. `NC(=O)C1CCCN(c2nc(-c3ccccn3)nc3scc(-c4ccccc4)c23)C1` (centres unmarked) [drawing 1624] gave an inhibition at 30 µM of 76 to 100%. Molecule `COCCNc1nc(-c2ccccn2)nc2scc(-c3ccccc3)c12` [drawing 1625] has an inhibition at 30 µM of 76 to 100%. Work on `CC(=O)N1CCN(c2nc(-c3ccccn3)nc3scc(-c4ccccc4)c23)CC1` [drawing 1626] yielded an inhibition at 30 µM of 76 to 100%. With `O=C1CCN(c2nc(-c3ccccn3)nc3scc(-c4ccccc4)c23)CC1` [drawing 1627] the inhibition at 30 µM was 76 to 100%. `Nc1nc(O)c2nc[nH]c2n1` [drawing 1629] gave an inhibition at 30 µM of 1 to 25%.
